Measurements published in patent US8546421B1, “Oncogenic-RAS-signal dependent lethal compounds” (The Trustees of Columbia University in the City of New York, priority 2007, dated 2013).
≈ marks a conversion by molar mass, not a printed value.

What was measured:
HL-60(TB) = conditions: Leukemia
786-0 = test: NCI60 anti-cancer screening; conditions: for GI 100% / GI50: 786-0; for GI 100%: Renal Cancer; for GI50 / CC50: Homo sapiens; for CC50: 786-0, read-out: LC 50%
MOLT-4 = test: NCI60 anti-cancer screening; conditions: for GI50 / CC50: Homo sapiens; for GI50 / GI 100%: MOLT-4; for CC50: MOLT-4, read-out: LC 50%; for GI 100%: Leukemia
SR = test: NCI60 anti-cancer screening; conditions: for GI50 / CC50: Homo sapiens; for CC50: read-out: LC 50%; for GI 100%: Leukemia
[1] = tested on: BJ-TERT/LT/ST/RAS^V12 cells; test: Alamar blue growth inhibition in dilution series; format: cell-based, human; conditions: Homo sapiens, alamar blue
HS 578T = test: NCI60 anti-cancer screening; conditions: for GI 100%: HS 578T, Breast Cancer; for GI50 / CC50: Homo sapiens, Hs-578T; for CC50: read-out: LC 50%
[2] = tested on: BJ-TERT/LT/ST/RAS^V12 cells; test: Counter screening with iron chelators; format: cell-based, human; conditions: DFOM and three additional iron-binding compounds; 24 hours
Experimental: Cells were treated with iron chelators by transferring 4 μL of 1 mM deferoxamine mesylate (Calbiochem, cat.#252750), 500 μM compound 1a (Chembridge, cat.#5175092), 1 mM compound 2 (Ryan Scientific, cat.#LT01784723), or 100 μM compound 311 (Chembridge, cat.#5135701) in growth media to the assay plate. Then, 4 μL was transferred from the ‘10× lethal plate’ (described in ‘counter screening with biologically active compounds’) to the assay plate in order to induce cell death. Assay plates were incubated for 24 hours and alamar blue was added to the plates at a final concentration of 10%.

CCRF-CEM = test: NCI60 anti-cancer screening; conditions: for GI 100%: Leukemia
[3] = tested on: BJ cell system (BJ-TERT, BJ-TERT/LT/ST, BJ-TERT/LT/ST/RAS^V12, DRD cells); test: Alamar blue potency and selectivity in the engineered BJ cell system; conditions: oncogenic-RAS-expressing vs non-oncogenic-RAS-expressing BJ cells; alamar blue
Experimental: Empty “step-daughter plates” were filled with 50 μL DMEM, except for columns 3 and 13, where 100 μL of hit compound solution were cherry-picked from daughter plates. After compound transfer, 2-fold dilution series across columns 3 through 12 and columns 13 through 22 was made by transferring 50 μL of compound solution to the next column successively (10-point dilution series), with extensive mixing. Hit-picking and 2-fold dilution series were carried out using Biomek FX Span-8 module (Beckman Coulter). Assay plates were prepared by seeding 1,000 BJ-TERT, BJ-TERT/LT/ST, and BJ-TERT/LT/ST/RAS^V12 cells per well in 36 μL growth medium. Cells in assay plates were treated with compounds from step-daughter plates by transferring 4 μL. The final concentration of the compound was 5.33 μg/mL to 0.01 μg/mL in this 10-point, 2-fold dilution series. Assay plates were returned to the culture incubator and maintained for 48 hours before adding alamar blue.
Fresh daughter plates were made from the mother plate and cherry-picked hits from the first round, 2-fold dilution series experiment as described above. Assay plates were prepared by seeding 1,000 BJ-TERT, BJ-TERT/LT/ST, BJ-TERT/LT/ST/RAS^V12 or BJ-TERT/p53DD/CDK4/cyclinD1/ST/RAS^V12 (DRD) cells per well in 32 μL growth media. Cells in the assay plates were treated with compounds from the step-daughter plate by transferring 8 μL solution. The final concentration of the compound was 10.66 μg/mL to 0.02 μg/mL in a 10-point, 2-fold dilution series manner. Assay plates were returned to the culture incubator and maintained for 48 hours before adding alamar blue.
Cells were seeded in 384-well assay plates, treated with candidate compounds, and incubated in the culture incubator in 40 μL culture volume per well. […] Plates were incubated further for 16 hours to allow reduction of alamar blue, which results in the generation of red fluorescence. The fluorescence intensity was determined using a Victor 3 plate reader (Perkin Elmer) with a 535 nm excitation filter and a 590 nm emission filter.
In the subsequent two-fold dilution series testing, selectivity was calculated as the ratio of GI50 values in BJ-TERT/LT/ST and BJ-TERT/LT/ST/RAS^V12 cells. […] DRD cells are also derived from BJ primary cells and the effects of mutations in both lines should be similar.

[4] = tested on: BJ-derived cell lines (BJ-TERT/LT/ST/RAS^V12 cells); test: Vi-Cell analysis (trypan blue exclusion); format: cell-based, human; conditions: 24 hours
Experimental: 200,000 cells were seeded in 6-well plates and treated with the indicated amount of 2-fold dilution series concentration of a candidate compound in 2 mL BJ growth medium. After 24 hours, cells were released with trypsin/EDTA, harvested in 1.1 mL growth medium, and transferred to a Vi-Cell (Beckman Coulter) disposable cup. After, trypan blue staining, 100 images of sample were taken and analysis of the images was carried out automatically by a Vi-Cell cell viability analyzer (Beckman Coulter).

HCT-116 = test: NCI60 anti-cancer screening
NCI-H23 = test: NCI60 anti-cancer screening
SK-MEL-28 = test: NCI60 anti-cancer screening
SK-MEL-5 = test: NCI60 anti-cancer screening
MDA-MB-435 = test: NCI60 anti-cancer screening
OVCAR-4 = test: NCI60 anti-cancer screening
LOX IMVI = test: NCI60 anti-cancer screening
MCF-7 = test: NCI60 anti-cancer screening
NCI-H522 = test: NCI60 anti-cancer screening
T-47D = test: NCI60 anti-cancer screening
KM12 = test: NCI60 anti-cancer screening
DU-145 = test: NCI60 anti-cancer screening
COLO 205 = test: NCI60 anti-cancer screening
UACC-62 = test: NCI60 anti-cancer screening
MALME-3M = test: NCI60 anti-cancer screening
SF-268 = test: NCI60 anti-cancer screening

## COCCOC(=O)C1=C(C)NC2=C(C(=O)CC(c3ccc(Cl)cc3)C2)C1c1ccccc1F (stereo not shown) [Compound 3]
HL-60(TB)
  GI 100%: >10 µM
786-0
  GI 100%: >10 µM
  GI50: 9.27 µM
  CC50: > 10 µM
MOLT-4
  GI50: 8.39 µM
  CC50: > 10 µM
  GI 100%: >10 µM
SR
  GI50: 7.15 µM
  CC50: > 10 µM
  GI 100%: >10 µM
[1]
  IC90: 10 µg/mL (≈ 21.3 µM)
HS 578T
  GI 100%: >10 µM
  GI50: 9.31 µM
  CC50: > 10 µM
[2]
  effect of iron chelators on compound activity / induced cell death: significantly inhibited
CCRF-CEM; Homo sapiens
  GI50: 7.95 µM
CCRF-CEM; Homo sapiens, read-out: LC 50%
  CC50: > 10 µM
CCRF-CEM
  GI 100%: >10 µM
[3]
  degree of selectivity against HRAS^G12V: 4-8 fold

## CCc1c(O)c2c(c(O)c1O[C@H]1O[C@@H](COC(C)=O)[C@H](OC(C)=O)[C@@H](CC(C)=O)[C@@H]1OC(C)=O)C(=O)C(O[C@@H]1O[C@H](COC(C)=O)[C@@H](OC(C)=O)[C@H](OC(C)=O)[C@H]1OC(C)=O)=C(O[C@@H]1O[C@H](COC(C)=O)[C@@H](OC(C)=O)[C@H](OC(C)=O)[C@H]1OC(C)=O)C2=O [Compound 6]
[4]
  potency and selectivity by trypan blue exclusion (in words): confirmed the potency and selectivity
HCT-116; HCT-116, Colon Cancer
  GI 100%: 1.32 µM
HCT-116; Homo sapiens, HCT-116
  GI50: 0.376 µM
HCT-116; Homo sapiens, HCT-116, read-out: LC 50%
  CC50: 3.64 µM
NCI-H23; Homo sapiens, NCI-H23
  GI50: 4.17 µM
NCI-H23; Homo sapiens, NCI-H23, read-out: LC 50%
  CC50: > 10 µM
NCI-H23; NCI-H23, Non-small cell lung carcinoma
  GI 100%: >10 µM
SK-MEL-28; Homo sapiens, SK-MEL-28
  GI50: 1.46 µM
SK-MEL-28; Homo sapiens, SK-MEL-28, read-out: LC 50%
  CC50: 6.63 µM
SK-MEL-28; SK-MEL-28, Melanoma
  GI 100%: 3.11 µM
SK-MEL-5; Homo sapiens, SK-MEL-5
  GI50: 5 µM
SK-MEL-5; Homo sapiens, SK-MEL-5, read-out: LC 50%
  CC50: > 10 µM
SK-MEL-5; SK-MEL-5, Melanoma
  GI 100%: >10 µM
MDA-MB-435; Homo sapiens, MDA-MB-435
  GI50: 2.21 µM
MDA-MB-435; Homo sapiens, MDA-MB-435, read-out: LC 50%
  CC50: 9.07 µM
MDA-MB-435; MDA-MB-435, Breast Cancer
  GI 100%: 4.38 µM
OVCAR-4; Homo sapiens, OVCAR-4
  GI50: 5.71 µM
OVCAR-4; Homo sapiens, OVCAR-4, read-out: LC 50%
  CC50: > 10 µM
OVCAR-4; OVCAR-4, Ovarian Cancer
  GI 100%: >10 µM
HL-60(TB)
  GI 100%: 2.38 µM
786-0
  GI 100%: 5.54 µM
  GI50: 2.51 µM
  CC50: > 10 µM
MOLT-4
  GI50: 0.783 µM
  CC50: > 10 µM
  GI 100%: 3.91 µM
LOX IMVI; Homo sapiens
  GI50: 1.73 µM
LOX IMVI; Homo sapiens, read-out: LC 50%
  CC50: 6.25 µM
LOX IMVI; Melanoma
  GI 100%: 3.29 µM
MCF-7; Homo sapiens, MCF7
  GI50: 1.55 µM
MCF-7; Homo sapiens, MCF7, read-out: LC 50%
  CC50: 9.18 µM
MCF-7; MCF-7, Breast Cancer
  GI 100%: 3.78 µM
NCI-H522; Homo sapiens, NCI-H522
  GI50: 0.49 µM
NCI-H522; Homo sapiens, NCI-H522, read-out: LC 50%
  CC50: 5.12 µM
NCI-H522; NCI-H522, Non-small cell lung carcinoma
  GI 100%: 1.79 µM
T-47D; Homo sapiens, T47D
  GI50: 4.53 µM
T-47D; Homo sapiens, T47D, read-out: LC 50%
  CC50: 9.35 µM
T-47D; T-47D, Breast Cancer
  GI 100%: 2.06 µM
SR
  GI50: 2.65 µM
  CC50: > 10 µM
  GI 100%: 8.4 µM
KM12; Homo sapiens, KM12
  GI50: 5.2 µM
KM12; Homo sapiens, KM12, read-out: LC 50%
  CC50: > 10 µM
KM12; KM12, Colon Cancer
  GI 100%: >10 µM
[1]
  IC90: 2.5 µg/mL (≈ 1.99 µM)
DU-145; DU-145, Prostate Cancer
  GI 100%: >10 µM
DU-145; Homo sapiens, DU-145
  GI50: 5.28 µM
DU-145; Homo sapiens, DU-145, read-out: LC 50%
  CC50: > 10 µM
HS 578T
  GI 100%: >10 µM
  GI50: 3.31 µM
  CC50: > 10 µM
COLO 205; COLO 205, Colon Cancer
  GI 100%: 1.26 µM
COLO 205; Homo sapiens, COLO 205
  GI50: 0.232 µM
COLO 205; Homo sapiens, COLO 205, read-out: LC 50%
  CC50: 4.78 µM
UACC-62; Homo sapiens, UACC-62
  GI50: 9.78 µM
UACC-62; Homo sapiens, UACC-62, read-out: LC 50%
  CC50: > 10 µM
UACC-62; UACC-62, Melanoma
  GI 100%: >10 µM
MALME-3M; Homo sapiens, Malme-3M
  GI50: 0.261 µM
MALME-3M; Homo sapiens, Malme-3M, read-out: LC 50%
  CC50: 2.8 µM
MALME-3M; MALME-3M, Melanoma
  GI 100%: 0.723 µM
SF-268; Homo sapiens, SF-268
  GI50: 2.46 µM
SF-268; Homo sapiens, SF-268, read-out: LC 50%
  CC50: > 10 µM
SF-268; SF-268, CNS Cancer
  GI 100%: 7.71 µM
CCRF-CEM; Homo sapiens
  GI50: 0.115 µM
CCRF-CEM
  GI 100%: 0.422 µM
[3]
  degree of selectivity against HRAS^G12V: 4-8 fold
